Laboratory results from the supplement of paper PMC11061612.

Assays:
Assay in all cases: combination Emax (second highest fraction inhibited in the dose matrix, 72 h); higher = more inhibition; extreme values may be limits of the assay
[1] = test system: MOG-G-UVW (Low Grade Glioma)
How it was run: (§1)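 Cell lines grown in DMEM/F12 or RPMI with 10% FBS were plated in 1536-well plates and held 24 hours at 37°C, 5% CO2 before 72 hours of exposure to two-drug dose matrices, with DMSO typically at 0.2%. CellTiter-Glo 2.0 luminescence gave viability, which was converted to inhibition. Vehicle wells were set to 0 and blank wells to 1. Combination Emax is the second-highest inhibition in the matrix, and Bliss excess is the observed combination effect minus the expected EA + EB − EA·EB, where EA and EB are the single-agent effects.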

[2] = test system: HAL-01 (B-Lymphoblastic Leukemia)
How it was run: as §1

[3] = test system: EFO-21 (Ovarian Carcinoma)
How it was run: as §1

[4] = test system: SKN (Other Solid Carcinomas)
How it was run: as §1

[5] = test system: OE33 (Esophageal Adenocarcinoma)
How it was run: as §1

[6] = test system: SNU-387 (Hepatocellular Carcinoma)
How it was run: as §1

[7] = test system: SK-LU-1 (Lung Adenocarcinoma)
How it was run: as §1

[8] = test system: NCI-H1993 (Lung Adenocarcinoma)
How it was run: as §1

[9] = test system: NCI-H1355 (Lung Adenocarcinoma)
How it was run: as §1

[10] = test system: KMRC-1 (Kidney Carcinoma)
How it was run: as §1

COLO-679 (Melanoma) = test system: COLO-679 (Melanoma)
How it was run: as §1

[11] = test system: MDA-MB-453 (Breast Carcinoma)
How it was run: as §1

[12] = test system: MOLT-4 (T-Lymphoblastic Leukemia)
How it was run: as §1

[13] = test system: COLO-668 (Small Cell Lung Carcinoma)
How it was run: as §1

[14] = test system: KGN (Other Solid Carcinomas)
How it was run: as §1

Hey (Ovarian Carcinoma) = test system: Hey (Ovarian Carcinoma)
How it was run: as §1

[15] = test system: NCI-H1838 (Lung Adenocarcinoma)
How it was run: as §1

[16] = test system: G-401 (Other Solid Carcinomas)
How it was run: as §1

[17] = test system: HCC1500 (Breast Carcinoma)
How it was run: as §1

[18] = test system: HCC1937 (Breast Carcinoma)
How it was run: as §1

Row | SMILES | combination Emax [1] | combination Emax [2] | combination Emax [3] | combination Emax [4] | combination Emax [5] | combination Emax [6] | combination Emax [7] | combination Emax [8] | combination Emax [9] | combination Emax [10] | combination Emax (COLO-679 (Melanoma)) | combination Emax [11] | combination Emax [12] | combination Emax [13] | combination Emax [14] | combination Emax (Hey (Ovarian Carcinoma)) | combination Emax [15] | combination Emax [16] | combination Emax [17] | combination Emax [18]
1 | C=CCn1c(=O)c2cnc(Nc3ccc(N4CCN(C)CC4)cc3)nc2n1-c1cccc(C(C)(C)O)n1 [AZD1775] + CCc1c2c(nc3ccc(O)cc13)-c1cc3c(c(=O)n1C2)COC(=O)[C@]3(O)CC [SN-38] (first compound max 1 µM, partner max 0.3 µM) | 0.945 | 1 | 0.466 | 0.756 | 0.734 | 0.497 | 0.645 | 0.739 | 0.659 | 0.534 | 0.632 | 0.696 | 1 | 0.956 | 0.833 | – | – | – | – | –
2 | C=CCn1c(=O)c2cnc(Nc3ccc(N4CCN(C)CC4)cc3)nc2n1-c1cccc(C(C)(C)O)n1 [AZD1775] + Nc1ccn([C@@H]2O[C@H](CO)[C@@H](O)C2(F)F)c(=O)n1 [Gemcitabine] (first compound max 1 µM, partner max 0.3 µM) | 0.938 | 1 | 0.482 | 0.633 | 0.616 | 0.552 | 0.457 | 0.905 | 0.614 | 0.717 | 0.76 | 0.539 | 1 | 0.738 | 0.892 | – | – | – | – | –
3 | CN(CCO)CC[C@H](CSc1ccccc1)Nc1ccc(S(=O)(=O)NC(=O)c2ccc(N3CCC([C@@H](O)c4ccccc4-c4ccc(Cl)cc4)CC3)cc2)cc1S(=O)(=O)C(F)(F)F [AZD4320] + CS(=O)(=O)CCNCc1ccc(-c2ccc3ncnc(Nc4ccc(OCc5cccc(F)c5)c(Cl)c4)c3c2)o1 [Lapatinib] (first compound max 1 µM, 7x7, partner max 10 µM) | 0.298 | 1 | 0.491 | 0.759 | 0.806 | 0.939 | 0.47 | 0.943 | 0.264 | 0.944 | 0.308 | 0.548 | 1 | 0.975 | 0.494 | – | – | – | – | –
4 | Cc1c2c(nn1C)CSCc1cc(n(C)n1)CSc1cc(c3ccccc3c1)OCCCc1c(C(=O)O)n(C)c3c-2c(Cl)ccc13 [AZD5991] + CC(=O)O[C@H]1C(=O)[C@@]2(C)[C@H]([C@H](OC(=O)c3ccccc3)[C@]3(O)C[C@H](OC(=O)[C@H](O)[C@@H](NC(=O)c4ccccc4)c4ccccc4)C(C)=C1C3(C)C)[C@]1(OC(C)=O)CO[C@@H]1C[C@@H]2O [Paclitaxel] (first compound max 1 µM, 7x7, partner max 3 µM) | 0.986 | 0.99 | 0.368 | 0.694 | 0.524 | 0.913 | 0.39 | 0.863 | 0.76 | 0.508 | 0.565 | 0.92 | 0.991 | 0.46 | 0.916 | – | – | – | – | –
5 | Cc1c2c(nn1C)CSCc1cc(n(C)n1)CSc1cc(c3ccccc3c1)OCCCc1c(C(=O)O)n(C)c3c-2c(Cl)ccc13 [AZD5991] + CS(=O)(=O)CCNCc1ccc(-c2ccc3ncnc(Nc4ccc(OCc5cccc(F)c5)c(Cl)c4)c3c2)o1 [Lapatinib] (first compound max 1 µM, 7x7, partner max 10 µM) | 0.311 | 0.965 | 0.277 | 0.223 | 0.529 | 0.459 | 0.229 | 0.433 | 0.326 | 0.54 | 0.188 | 0.527 | 0.604 | 0.285 | 0.454 | – | – | – | – | –
6 | Cc1c2c(nn1C)CSCc1cc(n(C)n1)CSc1cc(c3ccccc3c1)OCCCc1c(C(=O)O)n(C)c3c-2c(Cl)ccc13 [AZD5991] + Nc1ccn([C@@H]2O[C@H](CO)[C@@H](O)C2(F)F)c(=O)n1 [Gemcitabine] (first compound max 1 µM, 7x7, partner max 0.3 µM) | 0.857 | 1 | 0.379 | 0.582 | 0.543 | 0.565 | 0.19 | 0.902 | 0.455 | 0.737 | 0.782 | 0.731 | 0.992 | 0.829 | 0.9 | – | – | – | – | –
7 | C[C@@H]1COCCN1c1cc(C2([S@](C)(=N)=O)CC2)nc(-c2ccnc3[nH]ccc23)n1 [AZD6738] + C1CC(C1)(C(=O)[O-])C(=O)[O-].N.N.[Pt+2] [Carboplatin] (first compound max 10 µM, 7x7, partner max 10 µM) | 0.723 | 0.963 | 0.263 | 0.427 | 0.771 | 0.289 | 0.497 | 0.547 | 0.581 | 0.521 | 0.625 | 0.66 | 0.984 | 0.567 | 0.79 | – | – | – | – | –
8 | CC1(C)CCC(CN2CCN(c3ccc(C(=O)NS(=O)(=O)c4ccc(NCC5CCOCC5)c([N+](=O)[O-])c4)c(Oc4cnc5[nH]ccc5c4)c3)CC2)=C(c2ccc(Cl)cc2)C1 [Venetoclax] + CN(C)CCCOc1ccc(-c2ccc3ncc4c(c3c2)n(C2CCOCC2)c(=O)n4C)cn1 [AZD0156] (first compound max 1 µM, 7x7, partner max 1 µM) | 0.726 | 0.936 | 0.29 | 0.235 | 0.219 | 0.201 | – | 0.413 | 0.296 | 0.0988 | 0.107 | 0.169 | 0.741 | 0.452 | 0.488 | 0.216 | 0.303 | 0.35 | 0.864 | 0.283
9 | CC1(C)CCC(CN2CCN(c3ccc(C(=O)NS(=O)(=O)c4ccc(NCC5CCOCC5)c([N+](=O)[O-])c4)c(Oc4cnc5[nH]ccc5c4)c3)CC2)=C(c2ccc(Cl)cc2)C1 [Venetoclax] + COc1cc(Nc2ncc3c(n2)-c2ccc(Cl)cc2C(c2c(F)cccc2OC)=NC3)ccc1C(=O)O [Alisertib] (first compound max 1 µM, 7x7, partner max 10 µM) | 0.722 | 1 | 0.359 | 0.577 | 0.314 | 0.191 | – | 0.308 | 0.473 | 0.384 | 0.282 | 0.314 | 0.959 | 0.474 | 0.685 | 0.61 | 0.437 | 0.657 | 0.805 | 0.387
10 | CC1(C)CCC(CN2CCN(c3ccc(C(=O)NS(=O)(=O)c4ccc(NCC5CCOCC5)c([N+](=O)[O-])c4)c(Oc4cnc5[nH]ccc5c4)c3)CC2)=C(c2ccc(Cl)cc2)C1 [Venetoclax] + C[C@@H]1COCCN1C2=NC(=NC(=C2)C3(CC3)[S@](=N)(=O)C)C4=C5C=CNC5=NC=C4 [AZD6738] (first compound max 1 µM, 7x7, partner max 10 µM) | 0.852 | 1 | 0.444 | 0.491 | 0.773 | 0.588 | – | 0.582 | 0.696 | 0.486 | 0.639 | 0.761 | 1 | 0.877 | 0.751 | 0.774 | 0.6 | 0.703 | 0.855 | 0.587
11 | CC1(C)CCC(CN2CCN(c3ccc(C(=O)NS(=O)(=O)c4ccc(NCC5CCOCC5)c([N+](=O)[O-])c4)c(Oc4cnc5[nH]ccc5c4)c3)CC2)=C(c2ccc(Cl)cc2)C1 [Venetoclax] + C[C@@H](Nc1cc(F)cc(F)c1)c1cc(C(=O)N(C)C)cc2c(=O)cc(N3CCOCC3)oc12 [AZD8186] (first compound max 1 µM, 7x7, partner max 3 µM) | 0.45 | 0.988 | 0.248 | 0.456 | 0.211 | 0.21 | – | 0.296 | 0.196 | 0.532 | 0.273 | 0.703 | 0.422 | 0.438 | 0.333 | 0.139 | 0.0996 | 0.345 | 0.736 | 0.271
12 | CC1(C)CCC(CN2CCN(c3ccc(C(=O)NS(=O)(=O)c4ccc(NCC5CCOCC5)c([N+](=O)[O-])c4)c(Oc4cnc5[nH]ccc5c4)c3)CC2)=C(c2ccc(Cl)cc2)C1 [Venetoclax] + Cc1cc2ncnn2cc1Nc1ncc2c(n1)n(C1CCOCC1)c(=O)n2C [AZD7648] (first compound max 1 µM, 7x7, partner max 10 µM) | 0.416 | 0.881 | 0.28 | 0.257 | 0.154 | 0.167 | – | 0.541 | 0.346 | 0.181 | 0.133 | 0.198 | 0.445 | 0.447 | 0.471 | 0.328 | 0.344 | 0.424 | 0.823 | 0.244
13 | CC1(C)CCC(CN2CCN(c3ccc(C(=O)NS(=O)(=O)c4ccc(NCC5CCOCC5)c([N+](=O)[O-])c4)c(Oc4cnc5[nH]ccc5c4)c3)CC2)=C(c2ccc(Cl)cc2)C1 [Venetoclax] + Cn1cnc2c(F)c(Nc3ccc(Br)cc3Cl)c(C(=O)NOCCO)cc21 [Selumetinib] (first compound max 1 µM, 7x7, partner max 3 µM) | 0.413 | 0.97 | 0.264 | 0.136 | 0.174 | 0.295 | – | 0.436 | 0.273 | 0.135 | 0.737 | 0.15 | 0.451 | 0.787 | 0.246 | 0.55 | 0.165 | 0.33 | 0.612 | 0.264
